{
  "source": "patent US11192869B2",
  "about": "“CFTR regulators and methods of use thereof” (THE REGENTS OF THE UNIVERSITY OF CALIFORNIA, priority 2015, dated 2021)",
  "key": {"[1]": {"system": "mid-jejunal loops of cystic fibrosis mice", "test": "In vivo intestinal fluid absorption, closed mid-jejunal loops of CF mice", "design": "species or system mouse", "conditions": "30 min", "procedure": "In vivo intestinal secretion and absorption. Mice (wildtype or CF) were given access to 5% dextrose water but not solid food for 24 h before experiments. Mice were anesthetized with isoflurane and body temperature was maintained during surgery at 36-38° C. using a heating pad. A small abdominal incision was made to expose the small intestine, and closed mid-jejunal loops (length 2-3 cm) were isolated by sutures. Loops were injected with 100 μL vehicle alone or […] CFTRact-J027 in vehicle. The abdominal incision was closed with sutures, and mice were allowed to recover from anesthesia. Intestinal loops were removed at 90 min and loop length and weight were measured to quantify fluid secretion. Intestinal absorption was measured in CF mice (to prevent secretion) as described above, except that the loops were removed at 0 or 30 min. Absorption was calculated as 1-(loop weight at 0 min−loop weight at 30 min)/loop weight at 0 min.\nIn vivo intestinal secretion and absorption. […] Intestinal loops were removed at 90 min and loop length and weight were measured to quantify fluid secretion. Intestinal absorption was measured in CF mice (to prevent secretion) as described above, except that the loops were removed at 0 or 30 min. Absorption was calculated as 1-(loop weight at 0 min−loop weight at 30 min)/loop weight at 0 min."}, "[2]": {"test": "7-day chronic administration toxicity study", "type": "in vivo, mouse", "from_the_text": "(§1) Chronic administration and toxicity studies."}, "[3]": {"system": "tear secretion", "test": "Tear secretion (phenol red thread)", "type": "in vivo, mouse", "conditions": "single topical dose, for (at least) four hours"}, "[4]": {"system": "loperamide-induced mouse model of constipation", "test": "Loperamide-induced mouse model of constipation"}, "[5]": {"system": "cAMP", "test": "cAMP GloSensor luminescence assay in FRT cells", "type": "cell-based, rat", "conditions": "5 μM, 10 min", "procedure": "cAMP assay. Intracellular cAMP activity was measured using a GloSensor luminescence assay (Promega Corp., Madison, Wisconson, USA). FRT null cells were stably transfected with the pGloSensor cAMP plasmid and plated onto white 96-well microplates and grown to confluence. Cells were washed three times with PBS and incubated with 5 μM CFTRact-J027 for 10 min in the absence and presence of 100 nM forskolin. cAMP was assayed according to the manufacturer's instructions.\n(§2) cAMP and cytotoxicity assays. Intracellular cAMP activity was measured using a GloSensor luminescence assay (Promega Corp., Madison, Wis., USA). FRT cells stably transfected with the pGloSensor cAMP plasmid (Promega Corp.) were cultured in white 96-well microplates (Corning Costar) overnight. Cells were then washed three times with PBS and incubated with 5 μM test compound for 10 min in the absence and presence of 100 nM forskolin."}, "[6]": {"test": "In vitro metabolic stability", "type": "in vitro ADME, mouse", "procedure": "In vitro metabolic stability. CFTRact-J027 (5 μM) was incubated for specified times at 37° C. with mouse liver microsomes (1 mg protein/ml; Sigma-Aldrich) in potassium phosphate buffer (100 mM) containing 1 mM NADPH, as described. The mixture was then chilled on ice, and 0.5 ml of ice-cold ethyl acetate was added. Samples were centrifuged for 15 min at 3000 rpm, the supernatant evaporated to dryness, and the residue was dissolved in 100 μL mobile phase (acetonitrile:water, 3:1) for LC/MS and assayed as described above."}, "[7]": {"system": "ocular surface", "test": "Ocular surface potential difference measurements", "type": "in vivo, mouse", "conditions": "wild-type mice, 1-10 μM", "procedure": "Ocular surface potential difference measurements. Open-circuit transepithelial PD were measured continuously in anesthetized mice in response to serial perfusions of different solutions over the ocular surface, as described (21). Mice were anesthetized with Avertin (2,2,2-tribromoethanol, 125 mg/kg intraperitoneal, Sigma-Aldrich, St. Louis, Mo., USA), and core temperature was maintained at 37° C. using a heating pad. Eyes were oriented with the cornea and conjunctiva facing upward and exposed by retracting the eyelid with cross-action forceps. Solutions were isosmolar (320±10 mOsM; compositions provided in ref. 21) and contained 10μ[…] □ indomethacin to prevent CFTR activation by prostaglandins. The ocular surface was perfused at 6 mL/min through plastic tubing using a multireservoir gravity pinch-valve system (ALA Scientific, Westbury, N.Y., USA) and variable-flow peristaltic pump (medium flow model; Fisher Scientific, Fair Lawn, N.J., USA). A probe catheter was fixed 1 mm above the cornea using a micropositioner and a suction cannula was positioned 3 mm from the orbit. The measuring electrode was in contact to the perfusion catheter and connected to a high-impedance voltmeter (IsoMilivolt Meter; WPI). The reference electrode was grounded via a winged 21-gauge needle filled with isosmolar saline, and inserted subcutaneously in the abdomen. Measuring and reference electrodes consisted of Ag/AgCl with 3 M KCl agar bridges.\nOcular surface potential difference measurements. Open-circuit transepithelial PD were measured continuously in anesthetized mice in response to serial perfusions of different solutions over the ocular surface, as described (21). Mice were anesthetized with Avertin (2,2,2-tribromoethanol, 125 mg/kg intraperitoneal, Sigma-Aldrich, St. Louis, Mo., USA), and core temperature was maintained at 37° C. using a heating pad. Eyes were oriented with the cornea and conjunctiva facing upward and exposed by retracting the eyelid with cross-action forceps. […]"}, "[8]": {"system": "FRT cells", "test": "Cytotoxicity, Alamar Blue assay", "type": "cell-based, rat", "conditions": "20 μM", "procedure": "as §1, §2"}},
  "note": "“Also recorded” adds a separate entry of the source.",
  "data": [
    {"compound": "Nc1ccc([N+](=O)[O-])cc1-c1nc2ccccc2n(Cc2ccccc2)c1=O", "note": "[CFTRact-J027, 3-(2-amino-5-nitrophenyl)-1-benzylquinoxalin-2(1H)-one]", "values": [
      {"measurement": "intestinal fluid absorption", "setting": "[1]", "result": "did not affect"},
      {"measurement": "in vivo toxicity after chronic administration", "setting": "[2]; 7-day study, 10 mg/kg oral, 10 mg/kg", "result": "did not show significant; also recorded: without apparent toxicity"},
      {"measurement": "major serum chemistry and blood parameters", "setting": "[2]; 7-day treated mice", "result": "did not affect"},
      {"measurement": "increase of tear fluid secretion", "setting": "[3]", "result": "approximately two-fold"},
      {"measurement": "stool weight, pellet number and water content", "setting": "[4]; intraperitoneal 10 mg/kg, loperamide-treated mice, 3 h", "result": "normalizes stool output and water content"},
      {"measurement": "stool output or water content in control mice", "setting": "[4]; intraperitoneal, non-loperamide-treated mice", "result": "did not affect"},
      {"measurement": "effect in cystic fibrosis mice lacking functional CFTR", "setting": "[4]; loperamide model, CF mice", "result": "without effect"},
      {"measurement": "efficacy after chronic administration", "setting": "[4]; oral 10 mg/kg for 7 days, loperamide 1 h after final dose", "result": "remained effective"},
      {"measurement": "stool output and water content", "setting": "[4]; oral administration (10 mg/kg, 1 h prior to loperamide), 10 mg/kg", "result": "normalized stool output and water content; also recorded: effective in normalizing stool output and water content"},
      {"measurement": "cellular cAMP elevation, compound alone", "setting": "[5]", "result": "without causing elevation of cytoplasmic cAMP; also recorded: does not elevate cellular cAMP"},
      {"measurement": "cAMP when added together with forskolin", "setting": "[5]; forskolin 100 nM", "result": "does not further increase cAMP"},
      {"measurement": "original compound remaining", "setting": "[6]; 60 min", "result": 7, "unit": "%"},
      {"measurement": "hepatic/microsomal metabolism (in words)", "setting": "[6]; liver microsomes", "result": "rapid in vitro metabolism; also recorded: rapid hepatic metabolism"},
      {"measurement": "elimination half-life", "setting": "[6]; mouse liver microsomes, NADPH, 5 μM", "result": "~21", "unit": "min"},
      {"measurement": "change in ocular surface PD (in words)", "setting": "[7]", "result": "large hyperpolarizations"},
      {"measurement": "cytotoxicity", "setting": "[8]", "result": "did not show cytotoxicity"}
    ]}
  ]
}
